Laboratory results taken from publication PMC8963254, “Effects of Lysine N-ζ-Methylation in Ultrashort Tetrabasic Lipopeptides (UTBLPs) on the Potentiation of Rifampicin, Novobiocin, and Niclosamide in Gram-Negative Bacteria” (Antibiotics, 2022).
Values after ≈ are worked out from the molar mass of the structure shown. Where two headings read alike, the source gives them in different places. Residues, ends and D or L forms follow the SMILES beside them. *: point of attachment. Octanoyl = CCCCCCCC(=O)*

Experiments:
P. aeruginosa PAO1 [1] = type: cell-based, Pseudomonas aeruginosa; conditions: PAO1, 18 h
Method in brief: (§1)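 Turbidity at 590 nm defined growth, from which the MIC was taken. Cultures at a final density of 5 × 10^5 CFU/mL were exposed to a range of compound levels at 37 °C for 18 h in a CLSI-based microdilution format.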

A. baumannii ATCC 17978 [2] = type: cell-based, Acinetobacter baumannii; conditions: ATCC 17978, 18 h
Method in brief: as §1

A. baumannii AB027 [3] = assay: microbe, parasite or virus in culture; type: cell-based, Acinetobacter baumannii; conditions: AB027, 18 h
Method in brief: as §1

A. baumannii AB92247 = assay: microbe, parasite or virus in culture; type: cell-based, Acinetobacter baumannii; conditions: AB92247, 18 h
Method in brief: as §1

E. coli 94393 = assay: microbe, parasite or virus in culture; type: cell-based, Escherichia coli; conditions: 94393, 18 h
Method in brief: as §1

E. coli 94474 [4] = assay: microbe, parasite or virus in culture; type: cell-based, Escherichia coli; conditions: 94474, 18 h
Method in brief: as §1

E. cloacae 118564 = assay: microbe, parasite or virus in culture; type: cell-based, Enterobacter cloacae; conditions: 118564, 18 h
Method in brief: as §1

K. pneumoniae 113250 = assay: microbe, parasite or virus in culture; type: cell-based, Klebsiella pneumoniae; conditions: 113250, 18 h
Method in brief: as §1

[5] = system: P. aeruginosa PA259-96196; type: cell-based, Pseudomonas aeruginosa; conditions: for MICUTBLP: UTBLP alone
Method in brief: (§2)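 Values derive from a two-agent checkerboard with an 18 h, 37 °C incubation. FICI cut-offs: ≤0.5 synergy, 0.5–4 additive, >4 antagonism.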

[6] = system: P. aeruginosa PA262-101856; type: cell-based, Pseudomonas aeruginosa; conditions: for MICUTBLP: UTBLP alone
Method in brief: as §2

P. aeruginosa PAO1 [7] = type: cell-based, Pseudomonas aeruginosa; conditions: for MICUTBLP: UTBLP alone
Method in brief: as §2

A. baumannii 92247 = type: cell-based, Acinetobacter baumannii; conditions: for MICUTBLP: UTBLP alone
Method in brief: as §2

A. baumannii AB027 [8] = type: cell-based, Acinetobacter baumannii; conditions: for MICUTBLP: UTBLP alone
Method in brief: as §2

A. baumannii ATCC 17978 [9] = type: cell-based, Acinetobacter baumannii; conditions: for MICUTBLP: UTBLP alone
Method in brief: as §2

E. coli 94474 [10] = type: cell-based, Escherichia coli; conditions: for MICUTBLP: UTBLP alone
Method in brief: as §2

MRSE 61589 = type: cell-based, Staphylococcus epidermidis
Method in brief: as §2

MSSE 81388 = type: cell-based, Staphylococcus epidermidis
Method in brief: as §2

E. faecalis ATCC 29212 = type: cell-based, Enterococcus faecalis
Method in brief: as §2

[11] = UTBLP in combination with novobiocin
[12] = UTBLP in combination with rifampicin
[13] = novobiocin in combination with the UTBLP
[14] = rifampicin in combination with the UTBLP
[15] = UTBLP in combination with chloramphenicol
[16] = UTBLP in combination with niclosamide
[17] = chloramphenicol in combination with the UTBLP
[18] = niclosamide in combination with the UTBLP
[19] = UTBLP alone, plate with chloramphenicol

- MIC (P. aeruginosa PAO1 [1]): >128 µg/mL
- MIC (A. baumannii ATCC 17978 [2]): 64 µg/mL (≈ 70.3 µM)
- MIC (A. baumannii AB027 [3]): 128 µg/mL (≈ 141 µM)
- MIC (A. baumannii AB92247): 32 µg/mL (≈ 35.2 µM)
- MIC (E. coli 94393): 32 µg/mL (≈ 35.2 µM)
- MIC (E. coli 94474 [4]): 128 µg/mL (≈ 141 µM)
- MIC (E. cloacae 118564): > 128 µg/mL
- MIC (K. pneumoniae 113250): > 128 µg/mL
- MICUTBLP ([5]; plate with novobiocin): 128 µg/mL
- MICUTBLP ([5]; plate with rifampicin): > 128 µg/mL
- MICUTBLP [MICcombo] [5, 11]: 4 µg/mL
- MICUTBLP [MICcombo] [5, 12]: 8 µg/mL
- MICantibiotic [MICcombo] [5, 13]: 16 µg/mL
- MICantibiotic [MICcombo] [5, 14]: 0.5 µg/mL
- MICUTBLP ([6]; plate with novobiocin): > 128 µg/mL
- MICUTBLP ([6]; plate with rifampicin): > 128 µg/mL
- MICUTBLP [MICcombo] [6, 11]: 16 µg/mL
- MICUTBLP [MICcombo] [6, 12]: 16 µg/mL
- MICantibiotic [MICcombo] [6, 13]: 16 µg/mL
- MICantibiotic [MICcombo] [6, 14]: 32 µg/mL
- MICUTBLP (P. aeruginosa PAO1 [7]; plate with chloramphenicol): > 128 µg/mL
- MICUTBLP (P. aeruginosa PAO1 [7]; plate with niclosamide): > 128 µg/mL
- MICUTBLP (P. aeruginosa PAO1 [7]; plate with novobiocin): > 128 µg/mL
- MICUTBLP (P. aeruginosa PAO1 [7]; plate with rifampicin): > 128 µg/mL
- MICUTBLP [MICcombo] (P. aeruginosa PAO1 [7]; [15]): 2 µg/mL
- MICUTBLP [MICcombo] (P. aeruginosa PAO1 [7]; [16]): 4 µg/mL
- MICUTBLP [MICcombo] (P. aeruginosa PAO1 [7]; [11]): 16 µg/mL
- MICUTBLP [MICcombo] (P. aeruginosa PAO1 [7]; [12]): 16 µg/mL
- MICantibiotic [MICcombo] (P. aeruginosa PAO1 [7]; [17]): 2 µg/mL
- MICantibiotic [MICcombo] (P. aeruginosa PAO1 [7]; [18]): 4 µg/mL
- MICantibiotic [MICcombo] (P. aeruginosa PAO1 [7]; [13]): 8 µg/mL
- MICantibiotic [MICcombo] (P. aeruginosa PAO1 [7]; [14]): 0.5 µg/mL
- MICUTBLP (A. baumannii 92247; plate with novobiocin): 32 µg/mL
- MICUTBLP (A. baumannii 92247; plate with rifampicin): 32 µg/mL
- MICUTBLP [MICcombo] (A. baumannii 92247; [11]): 1 µg/mL
- MICUTBLP [MICcombo] (A. baumannii 92247; [12]): 2 µg/mL
- MICantibiotic [MICcombo] (A. baumannii 92247; [13]): 0.125 µg/mL
- MICantibiotic [MICcombo] (A. baumannii 92247; [14]): 0.063 µg/mL
- MICUTBLP (A. baumannii AB027 [8]; plate with novobiocin): 128 µg/mL
- MICUTBLP (A. baumannii AB027 [8]; plate with rifampicin): 128 µg/mL
- MICUTBLP [MICcombo] (A. baumannii AB027 [8]; [11]): 1 µg/mL
- MICUTBLP [MICcombo] (A. baumannii AB027 [8]; [12]): 2 µg/mL
- MICantibiotic [MICcombo] (A. baumannii AB027 [8]; [13]): 0.25 µg/mL
- MICantibiotic [MICcombo] (A. baumannii AB027 [8]; [14]): 0.016 µg/mL
- MICUTBLP (A. baumannii ATCC 17978 [9]; plate with chloramphenicol): 64 µg/mL
- MICUTBLP (A. baumannii ATCC 17978 [9]; plate with niclosamide): 64 µg/mL
- MICUTBLP (A. baumannii ATCC 17978 [9]; plate with novobiocin): 64 µg/mL
- MICUTBLP (A. baumannii ATCC 17978 [9]; plate with rifampicin): 64 µg/mL
- MICUTBLP [MICcombo] (A. baumannii ATCC 17978 [9]; [15]): 4 µg/mL
- MICUTBLP [MICcombo] (A. baumannii ATCC 17978 [9]; [16]): 0.5 µg/mL
- MICUTBLP [MICcombo] (A. baumannii ATCC 17978 [9]; [11]): 2 µg/mL
- MICUTBLP [MICcombo] (A. baumannii ATCC 17978 [9]; [12]): 1 µg/mL
- MICantibiotic [MICcombo] (A. baumannii ATCC 17978 [9]; [17]): 32 µg/mL
- MICantibiotic [MICcombo] (A. baumannii ATCC 17978 [9]; [18]): 1 µg/mL
- MICantibiotic [MICcombo] (A. baumannii ATCC 17978 [9]; [13]): 0.125 µg/mL
- MICantibiotic [MICcombo] (A. baumannii ATCC 17978 [9]; [14]): 0.031 µg/mL
- MICUTBLP (E. coli 94474 [10]; plate with novobiocin): 128 µg/mL
- MICUTBLP (E. coli 94474 [10]; plate with rifampicin): 128 µg/mL
- MICUTBLP [MICcombo] (E. coli 94474 [10]; [11]): 4 µg/mL
- MICUTBLP [MICcombo] (E. coli 94474 [10]; [12]): 2 µg/mL
- MICantibiotic [MICcombo] (E. coli 94474 [10]; [13]): 1 µg/mL
- MICantibiotic [MICcombo] (E. coli 94474 [10]; [14]): 0.25 µg/mL
- MICUTBLP (MRSE 61589; [19]): 8 µg/mL
- MICUTBLP [MICcombo] (MRSE 61589; [15]): 4 µg/mL
- MICchloramphenicol [MICcombo] (MRSE 61589; [17]): 4 µg/mL
- MICUTBLP (MSSE 81388; [19]): 16 µg/mL
- MICUTBLP [MICcombo] (MSSE 81388; [15]): 8 µg/mL
- MICchloramphenicol [MICcombo] (MSSE 81388; [17]): 0.25 µg/mL
- MICUTBLP (E. faecalis ATCC 29212; [19]): 32 µg/mL
- MICUTBLP [MICcombo] (E. faecalis ATCC 29212; [15]): 4 µg/mL
- MICchloramphenicol [MICcombo] (E. faecalis ATCC 29212; [17]): 4 µg/mL
SMILES: CCCCCCCC(=O)NCCCC[C@H](NC(=O)CCCCCCC)C(=O)N[C@@H](CCCCN)C(=O)N[C@@H](CCCCN)C(=O)N[C@@H](CCCCN)C(=O)N[C@@H](CCCCN)C(N)=O [UTBLP 5] (Octanoyl-K(Octanoyl)KKKK-NH2)
- Interpretation ([5]; UTBLP + novobiocin): Synergy (FICI ≤ 0.5 is synergistic)
- Interpretation ([5]; UTBLP + rifampicin): Synergy (FICI ≤ 0.5 is synergistic)
- Interpretation ([6]; UTBLP + novobiocin): Synergy (FICI ≤ 0.5 is synergistic)
- Interpretation ([6]; UTBLP + rifampicin): Synergy (FICI ≤ 0.5 is synergistic)
- Interpretation (P. aeruginosa PAO1 [7]; UTBLP + chloramphenicol): Synergy (FICI ≤ 0.5 is synergistic)
- Interpretation (P. aeruginosa PAO1 [7]; UTBLP + niclosamide): Synergy (FICI ≤ 0.5 is synergistic)
- Interpretation (P. aeruginosa PAO1 [7]; UTBLP + novobiocin): Synergy (FICI ≤ 0.5 is synergistic)
- Interpretation (P. aeruginosa PAO1 [7]; UTBLP + rifampicin): Synergy (FICI ≤ 0.5 is synergistic)
- Interpretation (A. baumannii 92247; UTBLP + novobiocin): Synergy (FICI ≤ 0.5 is synergistic)
- Interpretation (A. baumannii 92247; UTBLP + rifampicin): Synergy (FICI ≤ 0.5 is synergistic)
- Interpretation (A. baumannii AB027 [8]; UTBLP + novobiocin): Synergy (FICI ≤ 0.5 is synergistic)
- Interpretation (A. baumannii AB027 [8]; UTBLP + rifampicin): Synergy (FICI ≤ 0.5 is synergistic)
- Interpretation (A. baumannii ATCC 17978 [9]; UTBLP + chloramphenicol): Additive (0.5 < x ≤ 4 is additive)
- Interpretation (A. baumannii ATCC 17978 [9]; UTBLP + niclosamide): Synergy (FICI ≤ 0.5 is synergistic)
- Interpretation (A. baumannii ATCC 17978 [9]; UTBLP + novobiocin): Synergy (FICI ≤ 0.5 is synergistic)
- Interpretation (A. baumannii ATCC 17978 [9]; UTBLP + rifampicin): Synergy (FICI ≤ 0.5 is synergistic)
- Interpretation (E. coli 94474 [10]; UTBLP + novobiocin): Synergy (FICI ≤ 0.5 is synergistic)
- Interpretation (E. coli 94474 [10]; UTBLP + rifampicin): Synergy (FICI ≤ 0.5 is synergistic)
- Interpretation (MRSE 61589; UTBLP + chloramphenicol): Additive (0.5 < x ≤ 4 is additive)
- Interpretation (MSSE 81388; UTBLP + chloramphenicol): Additive (0.5 < x ≤ 4 is additive)
- Interpretation (E. faecalis ATCC 29212; UTBLP + chloramphenicol): Additive (0.5 < x ≤ 4 is additive)
